Results on one molecule are retold here after patent US12677825B2, “Composition for protecting islet transplantation” (LG CHEM, LTD., priority 2020, dated 2026).

Test [1] deals with islets from hIAPP+/− FVB/N mice. In words: Glucose-stimulated insulin secretion (GSIS) assay after islet isolation. The class given is cell-based, mouse. The note with it: 20 μM Compound 1 during islet isolation, vs non-treated group; FIG. 1E. Here is the method: Mouse islets were isolated from 10- to 12-week-old hIAPP^+/− and C57BL/6 mice as described previously. Briefly, 0.8 mg/mL of collagenase P (Roche, Indianapolis, IN, USA) in Hank's buffered saline solution (HBSS, Sigma-Aldrich, St. Louis, MO, USA) with or without 20 μM Compound 1 were infused into the common bile duct for mouse pancreas digestion. Islets were purified from the digested pancreas using a Ficoll (Biochrom, Berlin, Germany) gradient and washed several times with 1 xHBSS. Isolated islets were cultured while free-floating in 10 mL of RPMI 1640 (Gibco, Grand Island, NY, USA). The medium was supplemented with 10% heat-inactivated FBS (fetal bovine serum) at 37° C. and 5% CO2 incubation prior to the ex vivo and in vivo studies.
After hand-picking and washing with PBS, islets were seeded on 12-mm diameter insert wells (Merck Millipore, Billerica, MA, USA) with 10 islets per well, and preincubated with 60 mg/dL glucose in Kreb's-Ringer buffer (KRB: 129 mM NaCl, 4.8 mM KCl, 2.5 mM CaCl2, 1.2 mM KH2PO4, 5 mM NaHCO3, 10 mM HEPES, and 0.2% BSA) for […] at 37° C. After washing, islets were incubated with 300 mg/dL glucose-KRB for 1 hour, followed by additional incubation with 60 mg/dL glucose-KRB for 1 hour. Insulin release into the supernatant by the mouse islets was measured by ELISA (ALPCO, Salem, NH, USA) and a multiplex kit (Merck Millipore), respectively.

Test [2] relates to c-Jun N-terminal kinases, HMGB1, IL-1β, IL-6, TNF-α. The experiment in a line: Real-time qRT-PCR of c-Jun, HMGB1 and proinflammatory cytokines after islet isolation. Type of test: cell-based, mouse. The note with it: after isolation with 20 μM Compound 1, vs non-treated group; FIG. 1F. On the procedure:
Mouse islets were isolated from 10- to 12-week-old hIAPP^+/− and C57BL/6 mice as described previously. Briefly, 0.8 mg/mL of collagenase P (Roche, Indianapolis, IN, USA) in Hank's buffered saline solution (HBSS, Sigma-Aldrich, St. Louis, MO, USA) with or without 20 μM Compound 1 were infused into the common bile duct for mouse pancreas digestion. Islets were purified from the digested pancreas using a Ficoll (Biochrom, Berlin, Germany) gradient and washed several times with 1 xHBSS. Isolated islets were cultured while free-floating in 10 mL of RPMI 1640 (Gibco, Grand Island, NY, USA). […]
(§1) Harvested islets were treated with 500 μL Trizol (Life Technologies, Grand Island, NY, USA), and then 100 μL of chloroform was added. […] RNA purity was assessed by NanoDrop (Thermo Scientific, Wilmington, DE, USA) and agarose gel electrophoresis. […] Total RNA was reverse transcribed to quantify the expression of genes using the SuperScript™ II reverse transcription system (Life Technologies) according to the manufacturer's protocol.
(§2) Real-time qRT-PCR was performed using gene-specific primer pairs (Table 1). […] To quantify the expression level of genes, real-time PCR was performed using a SYBR premix kit (Takara Bio Inc., Tokyo, Japan) and an ABI Prism 7000 (Applied Biosystems, Foster City, CA, USA) according to the manufacturers' protocols.
(In qPCR the cycle at which signal appears reflects the starting amount.)

Test [3] concerns islets from hIAPP+/− FVB/N mice. The experiment in a line: Serum-deprived culture of mouse islets (viability, ROS). The note with it: dose-dependent 0.1 μM to 20 μM. Type of test: cell-based. Here is the method:
(§3) Purified hIAPP^+/− FVB/N and C57BL/6J mouse were suspended in RPMI 1640 (Gibco, Grand Island, NY, USA) containing 100 IU/mL penicillin and 100 μg/mL streptomycin, and cultured at 37° C. in a fully humidified 5% CO2 atmosphere. Purified NHP islets were suspended in CMRL 1066 medium (Coming Life Sciences, Tewksbury, MA; catalog number 99-663-CV) containing 100 IU/mL penicillin and 100 μg/mL streptomycin, and cultured at 37° C. in a fully humidified 5% CO2 atmosphere. […]
The viability of islets was evaluated using Alamar blue staining according to the manufacturer's protocol (Invitrogen, Grand Island, NY, USA). […] The fluorescence intensity of each well was measured at 570/585 nm (excitation/emission) using a GloMax-Multi Plus Detection System (Promega, Fitchburg, WI, USA), and the values were normalized to a blank.
The oxidative stress levels in hIAPP^+/− mouse islets were determined right after islet isolation and after ex vivo culture of isolated islets. The oxidative stress of the islets was quantified using a fluorescence-based intracellular ROS detection method and by estimating the concentration of malondialdehyde (MDA), a by-product of lipid peroxidation. The formation of total ROS, superoxide ion and nitric oxide was determined using a reactive oxygen species detection kit (ENZ-51011, Enzo Life Sciences, Farmingdale, New York, USA). […]

The subject of test [4] is TNF-α, IL-1β, IL-6, c-JUN and HMGB1. In words: Real-time qRT-PCR transcript levels during serum-deprived ex vivo culture. The class given is cell-based, mouse. The note with it: after 1 and 3 days of ex vivo culture, BSA+Compound 1 vs BSA group; FIGS. 6C, 6D. On the procedure:
as §3, §1, §2

SMILES strings stand for the structures.

For the molecule `O=S1(=O)CCN(Cc2cc(NC3CCOCC3)c3[nH]c(-c4ccccc4)cc3c2)CC1` [Compound 1], in test [1], the “stimulation index in GSIS assay” value is given as “comparable values between two groups”. Also, the “transcriptional expression of c-Jun N-terminal kinases, HMGB1, IL-1β, IL-6 and TNF-α” value in test [2] is listed as “significantly decreased”. Moreover, the relative cell viability result in test [3] (FIG. 4D) is given as “significantly increased”. In addition, the “serum deprivation-induced ROS” value in test [3] (FIG. 4F) is on record as “decreased”. For the same molecule, the “transcript levels of TNF-α, IL-1β, IL-6, c-JUN and HMGB1” value in test [4] is listed as “significantly attenuated”.
